Data from patent US10689354B2, “Aminoazole derivative” (Teijin Pharma Limited, priority 2015, dated 2020).

Legend:
[1] = target: T1, androgen receptor (AR-LBD) (Rattus norvegicus, UniProt P15207); experiment: Evaluation of androgen receptor affinity (PolarScreen Androgen Receptor Competitor Assay Kit, Red; fluorescence polarization); conditions: 22° C. for 5 hours, relative to binding rate of 1 μM DHT, read-out: AR affinity (pEC50) (converted)
T1 construct: 5 μL of 2×AR-LBD/Fluoromone AL Red Complex contained in the kit; purchased Invitrogen
T1 sequence (P15207 651-882 limits assumed): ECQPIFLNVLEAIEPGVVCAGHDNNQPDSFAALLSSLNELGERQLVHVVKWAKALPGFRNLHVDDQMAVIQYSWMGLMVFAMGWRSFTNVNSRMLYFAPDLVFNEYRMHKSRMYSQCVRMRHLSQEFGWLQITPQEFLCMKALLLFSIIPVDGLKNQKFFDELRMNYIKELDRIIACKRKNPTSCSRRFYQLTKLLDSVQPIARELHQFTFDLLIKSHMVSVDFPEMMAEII
Procedure, shortened: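 Duplicate wells of test compound were mixed with the kit's rat AR-LBD–Fluoromone AL Red tracer complex and left 5 hours at 22 °C before polarization was read. A 4-parameter fit gave pEC50, with binding rate referenced to 1 μM dihydrotestosterone.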

human androgen receptor = target: T2, human androgen receptor (Homo sapiens, UniProt P10275); experiment: Reporter assay of an androgen receptor responsive sequence (luciferase, transiently transfected HEK293 cells); format: cell-based; conditions: 24 hours incubation, relative to activity of 100 nM DHT, read-out: AR transcriptive activity (pEC50) (converted)
T2 construct: expressed in transfected cells; host or cells: HEK293
T2 sequence (P10275 1-920): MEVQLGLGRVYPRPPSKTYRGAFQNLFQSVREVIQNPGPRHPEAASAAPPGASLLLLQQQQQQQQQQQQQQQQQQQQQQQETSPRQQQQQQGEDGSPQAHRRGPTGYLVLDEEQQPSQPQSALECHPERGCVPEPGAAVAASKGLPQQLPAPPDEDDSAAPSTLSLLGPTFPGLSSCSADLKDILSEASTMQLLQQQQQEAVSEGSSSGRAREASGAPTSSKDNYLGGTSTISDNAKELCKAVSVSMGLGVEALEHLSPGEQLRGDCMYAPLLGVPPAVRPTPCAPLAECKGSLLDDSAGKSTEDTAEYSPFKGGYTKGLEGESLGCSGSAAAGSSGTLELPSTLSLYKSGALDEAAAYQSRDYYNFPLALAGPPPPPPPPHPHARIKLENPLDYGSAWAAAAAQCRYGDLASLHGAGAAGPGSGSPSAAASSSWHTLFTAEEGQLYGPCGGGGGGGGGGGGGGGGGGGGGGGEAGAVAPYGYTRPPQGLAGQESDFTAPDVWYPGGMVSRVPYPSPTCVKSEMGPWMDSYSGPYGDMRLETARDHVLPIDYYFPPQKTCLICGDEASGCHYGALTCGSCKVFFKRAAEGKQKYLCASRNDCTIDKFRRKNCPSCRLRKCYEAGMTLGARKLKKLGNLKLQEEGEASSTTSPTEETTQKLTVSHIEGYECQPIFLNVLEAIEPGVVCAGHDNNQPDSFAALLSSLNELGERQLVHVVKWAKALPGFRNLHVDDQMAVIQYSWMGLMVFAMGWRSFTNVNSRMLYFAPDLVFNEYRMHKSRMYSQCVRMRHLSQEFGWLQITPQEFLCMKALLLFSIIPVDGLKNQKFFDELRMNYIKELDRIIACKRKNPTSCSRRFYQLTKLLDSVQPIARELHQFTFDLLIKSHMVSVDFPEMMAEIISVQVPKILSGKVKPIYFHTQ
Procedure, shortened: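 Agonism scored as pEC50, fitted by 4-parameter curve against the response to 100 nM DHT, from dual-luciferase readout after 24 h compound treatment. Cells were HEK293 co-transfected (3 h) with human AR expression vector, androgen-responsive firefly reporter and Renilla control, in charcoal-stripped serum.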

EC50 [1] [nM]	EC50 (human androgen receptor) [nM]	SMILES
200	3160	CCc1oc(N(Cc2ccc(C(F)(F)F)cn2)c2ccc(C#N)cc2)nc1C(=O)NS(C)(=O)=O [Compound 638, 2-[4-cyano-N-[[5-(trifluoromethyl)-2-pyridyl]methyl]anilino]-5-ethyl-N-methylsulfonyl-oxazole-4-carboxamide]
251	7940	CCc1oc(N(Cc2ccc(C(F)(F)F)nc2)c2ccc(C#N)cc2)nc1C(=O)NS(C)(=O)=O [Compound 639, 2-[4-cyano-N-[[6-(trifluoromethyl)-3-pyridyl]methyl]anilino]-5-ethyl-N-methylsulfonyl-oxazole-4-carboxamide]
398	316	CS(=O)(=O)NC(=O)c1nc(N(Cc2ccc(F)cn2)c2ccc(C#N)cc2)sc1Br [Compound 640, 5-bromo-2-[4-cyano-N-[(5-fluoro-2-pyridyl)methyl]anilino]-N-methylsulfonyl-thiazole-4-carboxamide]
126	79.4	CS(=O)(=O)NC(=O)c1nc(N(Cc2ccc(Cl)cn2)c2ccc(C#N)cc2)sc1Br [Compound 641, 5-bromo-2-[N-[(5-chloro-2-pyridyl)methyl]-4-cyano-anilino]-N-methylsulfonyl-thiazole-4-carboxamide]
79.4	50.1	CS(=O)(=O)NC(=O)c1nc(N(Cc2ccc(Br)cn2)c2ccc(C#N)cc2)sc1Br [Compound 642, 5-bromo-2-[N-[(5-bromo-2-pyridyl)methyl]-4-cyano-anilino]-N-methylsulfonyl-thiazole-4-carboxamide]
79.4	63.1	CS(=O)(=O)NC(=O)c1nc(N(Cc2ccc(C(F)(F)F)cn2)c2ccc(C#N)cc2)sc1Br [Compound 643, 5-bromo-2-[4-cyano-N-[[5-(trifluoromethyl)-2-pyridyl]methyl]anilino]-N-methylsulfonyl-thiazole-4-carboxamide]
200	501	CS(=O)(=O)NC(=O)c1nc(N(Cc2ccc(Cl)cn2)c2ccc(C(F)(F)F)nc2)sc1Br [Compound 644, 5-bromo-2-[(5-chloro-2-pyridyl)methyl-[6-(trifluoromethyl)-3-pyridyl]amino]-N-methylsulfonyl-thiazole-4-carboxamide]
63.1	1260	CS(=O)(=O)NC(=O)c1nc(N(Cc2ccc(C(F)(F)F)nc2)c2ccc(C#N)cc2)sc1Br [Compound 645, 5-bromo-2-[4-cyano-N-[[6-(trifluoromethyl)-3-pyridyl]methyl]anilino]-N-methylsulfonyl-thiazole-4-carboxamide]
39.8	> 10000	CS(=O)(=O)NC(=O)c1nc(N(Cc2ccc(Cl)cc2)c2ccc(C#N)cc2)oc1C1CC1 [Compound 646, 2-[N-[(4-chlorophenyl)methyl]-4-cyano-anilino]-5-cyclopropyl-N-methylsulfonyl-oxazole-4-carboxamide]
25.1	> 10000	CS(=O)(=O)NC(=O)c1nc(N(Cc2ccc(Cl)c(Cl)c2)c2ccc(C#N)cc2)oc1C1CC1 [Compound 647, 2-[4-cyano-N-[(3,4-dichlorophenyl)methyl]anilino]-5-cyclopropyl-N-methylsulfonyl-oxazole-4-carboxamide]
50.1	> 10000	CS(=O)(=O)NC(=O)c1nc(N(Cc2ccc(OC(F)F)cc2)c2ccc(C#N)cc2)oc1C1CC1 [Compound 648, 2-[4-cyano-N-[[4-(difluoromethoxy)phenyl]methyl]anilino]-5-cyclopropyl-N-methylsulfonyl-oxazole-4-carboxamide]
631	> 10000	CS(=O)(=O)NC(=O)c1nc(N(Cc2ccc(C(F)(F)F)cn2)c2ccc(C#N)cc2)oc1C1CC1 [Compound 649, 2-[4-cyano-N-[[5-(trifluoromethyl)-2-pyridyl]methyl]anilino]-5-cyclopropyl-N-methylsulfonyl-oxazole-4-carboxamide]
31.6	200	CCc1oc(N(Cc2ccc(Br)c(Cl)c2)c2ccc(C#N)cc2)nc1C(=O)NS(C)(=O)=O [Compound 650, 2-[N-[(4-bromo-3-chloro-phenyl)methyl]-4-cyano-anilino]-5-ethyl-N-methylsulfonyl-oxazole-4-carboxamide]
39.8	200	CCc1oc(N(Cc2ccc(Cl)c(F)c2)c2ccc(C#N)cc2)nc1C(=O)NS(C)(=O)=O [Compound 651, 2-[N-[(4-chloro-3-fluoro-phenyl)methyl]-4-cyano-anilino]-5-ethyl-N-methylsulfonyl-oxazole-4-carboxamide]
25.1	158	CCc1oc(N(Cc2ccc(Br)c(F)c2)c2ccc(C#N)cc2)nc1C(=O)NS(C)(=O)=O [Compound 652, 2-[N-[(4-bromo-3-fluoro-phenyl)methyl]-4-cyano-anilino]-5-ethyl-N-methylsulfonyl-oxazole-4-carboxamide]
50.1	158	CCc1oc(N(Cc2ccc(Br)cc2)c2ccc(C#N)cc2)nc1C(=O)NS(C)(=O)=O [Compound 653, 2-[N-[(4-bromophenyl)methyl]-4-cyano-anilino]-5-ethyl-N-methylsulfonyl-oxazole-4-carboxamide]
39.8	631	CCc1oc(N(Cc2ccc(OC(F)F)c(F)c2)c2ccc(C#N)cc2)nc1C(=O)NS(C)(=O)=O [Compound 654, 2-[4-cyano-N-[[4-(difluoromethoxy)-3-fluoro-phenyl]methyl]anilino]-5-ethyl-N-methylsulfonyl-oxazole-4-carboxamide]
39.8	398	CCc1oc(N(Cc2ccc(C(F)(F)F)c(F)c2)c2ccc(C#N)cc2)nc1C(=O)NS(C)(=O)=O [Compound 655, 2-[4-cyano-N-[[3-fluoro-4-(trifluoromethyl)phenyl]methyl]anilino]-5-ethyl-N-methylsulfonyl-oxazole-4-carboxamide]
20	631	CCc1oc(N(Cc2cc(F)cc(OC(F)F)c2)c2ccc(C#N)cc2)nc1C(=O)NS(C)(=O)=O [Compound 656, 2-[4-cyano-N-[[3-(difluoromethoxy)-5-fluoro-phenyl]methyl]anilino]-5-ethyl-N-methylsulfonyl-oxazole-4-carboxamide]
31.6	50.1	CS(=O)(=O)NC(=O)c1nc(N(Cc2ccccc2)c2ccc(C#N)cc2)sc1Cl [Compound 657, 2-(N-benzyl-4-cyano-anilino)-5-chloro-N-methylsulfonyl-thiazole-4-carboxamide]
100	5010	CS(=O)(=O)NC(=O)c1nc(N(Cc2ccc(Cl)cn2)c2ccc(C#N)cc2)sc1C1CC1 [Compound 658, 2-[N-[(5-chloro-2-pyridyl)methyl]-4-cyano-anilino]-5-cyclopropyl-N-methylsulfonyl-thiazole-4-carboxamide]
126	> 10000	CS(=O)(=O)NC(=O)c1nc(N(Cc2ccc(C(F)(F)F)nc2)c2ccc(C#N)cc2)sc1C1CC1 [Compound 659, 2-[4-cyano-N-[[6-(trifluoromethyl)-3-pyridyl]methyl]anilino]-5-cyclopropyl-N-methylsulfonyl-thiazole-4-carboxamide]
79.4	> 10000	CS(=O)(=O)NC(=O)c1nc(N(Cc2ccccc2)c2ccc(C#N)cc2)sc1C1CC1 [Compound 660, 2-(N-benzyl-4-cyano-anilino)-5-cyclopropyl-N-methylsulfonyl-thiazole-4-carboxamide]
15.8	501	CS(=O)(=O)NC(=O)c1nc(N(Cc2ccc(Cl)cc2)c2ccc(C#N)cc2)sc1C1CC1 [Compound 661, 2-[N-[(4-chlorophenyl)methyl]-4-cyano-anilino]-5-cyclopropyl-N-methylsulfonyl-thiazole-4-carboxamide]
